In patent publication US7786299B2, “Methods for treating diseases or conditions using dihydropteridinone compounds” (Boehringer Ingelheim Pharma GmbH & Co. KG, priority 2003, dated 2010):

Key:
[1] = tested on: HeLaS3 cells; assay: Measurement of cytotoxicity on cultivated human tumour cells (AlamarBlue); format: cell-based; conditions: HeLa in Table 1; unit inferred
Description: The activity of the compounds according to the invention was determined in the cytotoxicity test on cultivated human tumour cells and/or in a FACS analysis, for example on HeLaS3 cells.
Measurement of Cytotoxicity on Cultivated Human Tumour Cells
To measure the cytotoxicity on cultivated human tumour cells, cells of the cervical cancer tumour cell line HeLaS3 (obtained from American Type Culture Collection (ATCC)) in Ham's F12 Medium (Life Technologies) and 10% foetal calf serum (Life Technologies) were cultivated and harvested in the logarithmic growth phase. Then the HeLaS3 cells were placed in 96-well plates (Costar) at a density of 1000 cells per well and incubated overnight in an incubator (at 37° C. and 5% CO2), while on each plate 6 wells were filled only with medium (3 wells as a control of the medium, 3 wells for incubation with reduced AlamarBlue). The active substances were added to the cells in various concentrations (dissolved in DMSO; final concentration: 1%) (in each case as a triple measurement). After 72 hours' incubation, 20 μl of AlamarBlue (AccuMed International) were added to each well, and the cells were incubated for a further 7 hours. As a control, 20 μl of reduced Alamar Blue (AlamarBlue reagent which had been autoclaved for 30 min) were added to 3 wells. After 7 h incubation the colour change of the AlamarBlue reagent in the individual wells was determined in a Perkin Elmer fluorescence spectrophotometer (excitation 530 nm, emission 590 nm, slits 15, integrate time 0.1). The amount of AlamarBlue reagent reacted represents the metabolic activity of the cells. The relative cell activity was calculated as a percentage of the control (HeLa S3 cells without inhibitor) and the active substance concentration which inhibits the cell activity by 50% (IC^50) was obtained. The values were calculated from the average of three individual measurements, correcting for the control value (medium control).

[2] = tested on: H460-VINC; assay: Cytotoxicity on H460-VINC cells (Table 1; method not given); format: cell-based; conditions: H460-VINC of Table 1; unit inferred

SMILES | IC50 [1] | IC50 [2]
CC[C@@H]1C(=O)N(C)c2cnc(Nc3ccc(C(=O)NCCN(C(C)C)C(C)C)cc3OC)nc2N1CCC(C)C [Example 160] | 37 nM | 728 nM
COc1cc(C(=O)N[C@H]2CC[C@H](N3CCOCC3)CC2)ccc1Nc1ncc2c(n1)N(CCC(C)C)[C@H](C)C(=O)N2C [Example 38] | 87 nM | 278 nM
CCN1CCC(NC(=O)c2ccc(Nc3ncc4c(n3)N(C3CCCC3)C(C)C(=O)N4C)c(OC)c2)CC1 (stereo not drawn) [Example 17] | 24 nM | 730 nM
COc1cc(C(=O)NCCN(C)C)ccc1Nc1ncc2c(n1)N(C1CCCC1)C(C)C(=O)N2C (stereo not drawn) [Example 67] | 52 nM | 566 nM
Cc1cc(C(=O)NC2CCN(C)CC2)ccc1Nc1ncc2c(n1)N(C1CCCC1)[C@H](C)C(=O)N2C [Example 83] | 69 nM | 263 nM
COc1cc(C(=O)NCC(C)(C)CN(C)C)ccc1Nc1ncc2c(n1)N(C1CCCCC1)[C@H](C)C(=O)N2C [Example 86] | 38 nM | 24 nM
COc1cc(C(=O)NCC(C)(C)CN(C)C)ccc1Nc1ncc2c(n1)N(C1CCCC1)C(C)C(=O)N2C (stereo not drawn) [Example 60] | 41 nM | 189 nM
CC[C@@H]1C(=O)N(C)c2cnc(Nc3ccc(C(=O)NCCN4CCOCC4)cc3OC)nc2N1CCC(C)C [Example 156] | 48 nM | 481 nM
CCC1C(=O)N(C)c2cnc(Nc3ccc(C(=O)NC(C)(C)CN4CCCC4)cc3OC)nc2N1C(C)C (stereo not drawn) [Example 54] | 31 nM | 226 nM
COc1cc(C(=O)NC2CCC(N3CCOCC3)CC2)ccc1Nc1ncc2c(n1)N(C1CCCCC1)C(C)C(=O)N2C (stereo not drawn) [Example 130] | 15 nM | 91 nM
CCC1C(=O)N(C)c2cnc(Nc3ccc(C(=O)NC4CCC(N5CCOCC5)CC4)cc3OC)nc2N1C(C)C (stereo not drawn) [Example 28] | 18 nM | 160 nM
CC[C@@H]1C(=O)N(C)c2cnc(Nc3ccc(C(=O)NCC(C)(C)CN(C)C)cc3OC)nc2N1c1ccccc1 [Example 89] | 47 nM | 245 nM
CC[C@@H]1C(=O)N(C)c2cnc(Nc3ccc(C(=O)NCCN4CCOCC4)cc3OC)nc2N1C(C)C [Example 71] | 35 nM | 227 nM
CCC1C(=O)N(C)c2cnc(Nc3ccc(C(=O)NC4CCC(N5CCOCC5)CC4)cc3OC)nc2N1C1CCCC1 (stereo not drawn) [Example 133] | 11 nM | 75 nM
CCC1C(=O)N(C)c2cnc(Nc3ccc(C(=O)NCC(C)(C)CN(C)C)cc3OC)nc2N1C1CCCC1 (stereo not drawn) [Example 58] | 10 nM | 23 nM
CC1C(=O)N(C)c2cnc(Nc3ccc(C(=O)NC4CCN(C)CC4)cc3)nc2N1c1ccccc1 (stereo not drawn) [Example 48] | 83 nM | ≥ 3000 nM
CCN1CCC(NC(=O)c2ccc(Nc3ncc4c(n3)N(C3CCCCC3)C(C)C(=O)N4C)c(OC)c2)CC1 (stereo not drawn) [Example 119] | 8 nM | 438 nM
COc1cc(C(=O)NC2CC(C)(C)N(C)C(C)(C)C2)ccc1Nc1ncc2c(n1)N(CCC(C)C)C(C)C(=O)N2C (stereo not drawn) [Example 1] | 46 nM | 604 nM
COc1cc(C(=O)NC2CCC(N3CCOCC3)CC2)ccc1Nc1ncc2c(n1)N(CCC(C)C)C(C)C(=O)N2C (stereo not drawn) [Example 9] | 57 nM | 207 nM
CCC1C(=O)N(C)c2cnc(Nc3ccc(C(=O)NC4CCC(N5CCN(C)CC5)CC4)cc3OC)nc2N1C(C)C (stereo not drawn) [Example 113] | 37 nM | 687 nM
CCC1C(=O)N(C)c2cnc(Nc3ccc(C(=O)NC4CCN(CC)CC4)cc3OC)nc2N1C1CCCC1 (stereo not drawn) [Example 22] | 8 nM | 347 nM
COc1cc(C(=O)NC2CCC(N3CCN(CC4CC4)CC3)CC2)ccc1Nc1ncc2c(n1)N(C(C)C)C(C)C(=O)N2C (stereo not drawn) [Example 112] | 75 nM | 345 nM
COc1cc(C(=O)NC2CCC(N(C)C)CC2)ccc1Nc1ncc2c(n1)N(C1CCCC1)C(C)C(=O)N2C (stereo not drawn) [Example 13] | 26 nM | 1320 nM
COc1cc(C(=O)NC(C)(C)CN2CCCC2)ccc1Nc1ncc2c(n1)N(CC(C)(C)C)C(C)C(=O)N2C (stereo not drawn) [Example 50] | 81 nM | 436 nM
